According to ChEMBL document CHEMBL1201862, “PubChem BioAssay data set” (2004):
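Five concentrations, 48 hours, 96-well plates. The concentration for 50% growth inhibition is given as GI50.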 Activity calls are given as the source filed them. Cut-off read from the data, not from the text of the source: active = GI50 up to about 1.1 µM and inactive = higher.

Columns and labels:
Experiment in all cases: inhibition of tumour cell growth, NCI panel, 48 h
786-0 = system: 786-0
A498 = system: A498
A549 = system: A549
ACHN = system: ACHN
CAKI-1 = system: CAKI-1
CCRF-CEM = system: CCRF-CEM
COLO 205 = system: COLO 205
DLD-1 = system: DLD-1
DMS-114 = system: DMS-114
DMS-273 = system: DMS-273
EKVX = system: EKVX
HCC 2998 = system: HCC 2998
HCT-15 = system: HCT-15
HL-60 = system: HL-60
HOP-18 = system: HOP-18
HOP-62 = system: HOP-62
HT-29 = system: HT-29
IGROV-1 = system: IGROV-1
K562 = system: K562
KM-20L2 = system: KM-20L2
KM12 = system: KM12
LOX IMVI = system: LOX IMVI
LXFL 529 = system: LXFL 529
M14 = system: M14
M19-MEL = system: M19-MEL
MOLT-4 = system: MOLT-4
Malme-3M = system: Malme-3M
NCI-H226 = system: NCI-H226
NCI-H23 = system: NCI-H23
NCI-H460 = system: NCI-H460
NCI-H522 = system: NCI-H522
OVCAR-3 = system: OVCAR-3
OVCAR-4 = system: OVCAR-4
OVCAR-5 = system: OVCAR-5
OVCAR-8 = system: OVCAR-8
RPMI-8226 = system: RPMI-8226
RXF 393 = system: RXF 393
RXF 631 = system: RXF 631
SF-268 = system: SF-268
SF-295 = system: SF-295
SF-539 = system: SF-539
SK-MEL-28 = system: SK-MEL-28
SK-MEL-2 = system: SK-MEL-2
SK-MEL-5 = system: SK-MEL-5
SK-OV-3 = system: SK-OV-3
SN12C = system: SN12C
SNB-19 = system: SNB-19
SNB-75 = system: SNB-75
SW-620 = system: SW-620
TK-10 = system: TK-10
UACC-257 = system: UACC-257
UACC-62 = system: UACC-62
UO-31 = system: UO-31
HCT-116 = system: HCT-116
HOP-92 = system: HOP-92
SNB-78 = system: SNB-78
SR = system: SR
U-251 = system: U-251
XF498 = system: XF498

## Cc1cccc(NC2=NC(=O)C(CC(=O)Nc3ccc(Cl)cc3C)S2)c1 (configuration not stated)
786-0
  GI50: > 100 µM (inactive)
A498
  GI50: 53.8 µM (inactive)
A549
  GI50: > 100 µM (inactive)
ACHN
  GI50: > 100 µM (inactive)
CAKI-1
  GI50: > 100 µM (inactive)
CCRF-CEM
  GI50: > 100 µM (inactive)
COLO 205
  GI50: > 100 µM (inactive)
DLD-1
  GI50: > 100 µM (inactive)
DMS-114
  GI50: > 100 µM (inactive)
DMS-273
  GI50: > 100 µM (inactive)
EKVX
  GI50: > 100 µM (inactive)
HCC 2998
  GI50: > 100 µM (inactive)
HCT-15
  GI50: > 100 µM
HL-60
  GI50: > 100 µM (inactive)
HOP-18
  GI50: > 100 µM (inactive)
HOP-62
  GI50: > 100 µM (inactive)
HT-29
  GI50: > 100 µM (inactive)
IGROV-1
  GI50: > 100 µM (inactive)
K562
  GI50: > 100 µM (inactive)
KM-20L2
  GI50: > 100 µM (inactive)
KM12
  GI50: > 100 µM (inactive)
LOX IMVI
  GI50: > 100 µM (inactive)
LXFL 529
  GI50: > 100 µM (inactive)
M14
  GI50: > 100 µM (inactive)
M19-MEL
  GI50: > 100 µM (inactive)
MOLT-4
  GI50: > 100 µM (inactive)
Malme-3M
  GI50: > 100 µM (inactive)
NCI-H226
  GI50: > 100 µM (inactive)
NCI-H23
  GI50: > 100 µM (inactive)
NCI-H460
  GI50: > 100 µM (inactive)
NCI-H522
  GI50: > 100 µM (inactive)
OVCAR-3
  GI50: > 100 µM (inactive)
OVCAR-4
  GI50: > 100 µM (inactive)
OVCAR-5
  GI50: > 100 µM (inactive)
OVCAR-8
  GI50: > 100 µM (inactive)
RPMI-8226
  GI50: > 100 µM (inactive)
RXF 393
  GI50: > 100 µM (inactive)
RXF 631
  GI50: > 100 µM (inactive)
SF-268
  GI50: > 100 µM (inactive)
SF-295
  GI50: > 100 µM (inactive)
SF-539
  GI50: > 100 µM (inactive)
SK-MEL-28
  GI50: > 100 µM (inactive)
SK-MEL-2
  GI50: > 100 µM (inactive)
SK-MEL-5
  GI50: > 100 µM (inactive)
SK-OV-3
  GI50: > 100 µM (inactive)
SN12C
  GI50: > 100 µM (inactive)
SNB-19
  GI50: > 100 µM (inactive)
SNB-75
  GI50: > 100 µM (inactive)
SW-620
  GI50: > 100 µM (inactive)
TK-10
  GI50: > 100 µM (inactive)
UACC-257
  GI50: > 100 µM (inactive)
UACC-62
  GI50: > 100 µM (inactive)
UO-31
  GI50: > 100 µM (inactive)

## C=C(C=O)[C@@H]1C2OC(=O)C(=C)[C@@H]2CC(O)[C@@]1(C)CC (some centres not stated)
786-0
  GI50: 3.32 µM (inactive)
A498
  GI50: 17.1 µM (inactive)
A549
  GI50: 32.8 µM (inactive)
ACHN
  GI50: 13.7 µM (inactive)
CAKI-1
  GI50: 9.38 µM (inactive)
CCRF-CEM
  GI50: 2.08 µM (inactive)
COLO 205
  GI50: 5.66 µM (inactive)
DLD-1
  GI50: 2.75 µM (inactive)
DMS-114
  GI50: 14.8 µM (inactive)
EKVX
  GI50: 18.2 µM (inactive)
HCC 2998
  GI50: 16.6 µM (inactive)
HCT-116
  GI50: 3.78 µM (inactive)
HCT-15
  GI50: 6.22 µM
HL-60
  GI50: 2.25 µM (inactive)
HOP-18
  GI50: 26.1 µM (inactive)
HOP-62
  GI50: 50.2 µM (inactive)
HOP-92
  GI50: 2.33 µM (inactive)
HT-29
  GI50: 6.75 µM (inactive)
IGROV-1
  GI50: 10.7 µM (inactive)
K562
  GI50: 3.27 µM (inactive)
KM-20L2
  GI50: 12.2 µM (inactive)
KM12
  GI50: 13.1 µM (inactive)
LOX IMVI
  GI50: 15.8 µM (inactive)
LXFL 529
  GI50: 3.08 µM (inactive)
M14
  GI50: 4.83 µM (inactive)
M19-MEL
  GI50: 5.48 µM (inactive)
MOLT-4
  GI50: 2.48 µM (inactive)
Malme-3M
  GI50: 6.21 µM (inactive)
NCI-H226
  GI50: 32 µM (inactive)
NCI-H23
  GI50: 7.23 µM (inactive)
NCI-H460
  GI50: 21.2 µM (inactive)
NCI-H522
  GI50: 1.87 µM (inactive)
OVCAR-3
  GI50: 6.71 µM (inactive)
OVCAR-4
  GI50: 11.5 µM (inactive)
OVCAR-5
  GI50: 17.8 µM (inactive)
OVCAR-8
  GI50: 4.37 µM (inactive)
RPMI-8226
  GI50: 2.93 µM (inactive)
RXF 393
  GI50: 2.11 µM (inactive)
RXF 631
  GI50: 19.2 µM (inactive)
SF-268
  GI50: 23.8 µM (inactive)
SF-295
  GI50: 22.4 µM (inactive)
SF-539
  GI50: 9.29 µM (inactive)
SK-MEL-28
  GI50: 3.83 µM (inactive)
SK-MEL-2
  GI50: 13.2 µM (inactive)
SK-MEL-5
  GI50: 6.78 µM (inactive)
SK-OV-3
  GI50: > 60.5 µM (inactive)
SN12C
  GI50: 10.1 µM (inactive)
SNB-19
  GI50: 45.2 µM (inactive)
SNB-75
  GI50: > 100 µM (inactive)
SNB-78
  GI50: 6.17 µM (inactive)
SR
  GI50: 3.4 µM (inactive)
SW-620
  GI50: 3.16 µM (inactive)
TK-10
  GI50: 15.7 µM (inactive)
U-251
  GI50: 11.7 µM (inactive)
UACC-257
  GI50: 11.9 µM (inactive)
UACC-62
  GI50: 4.12 µM (inactive)
UO-31
  GI50: 21.3 µM (inactive)

## Cc1cc(C)nc(NS(=O)(=O)c2ccc(NC(=O)c3cccc4c(=O)c5ccccc5[nH]c34)cc2)n1
786-0
  GI50: 18.7 µM (inactive)
A498
  GI50: 18.2 µM (inactive)
A549
  GI50: 22.7 µM (inactive)
ACHN
  GI50: 21.6 µM (inactive)
CAKI-1
  GI50: 33 µM (inactive)
CCRF-CEM
  GI50: 13 µM (inactive)
COLO 205
  GI50: 18.3 µM (inactive)
DLD-1
  GI50: 20.7 µM (inactive)
DMS-114
  GI50: 18.4 µM (inactive)
DMS-273
  GI50: 22.1 µM (inactive)
EKVX
  GI50: 26.5 µM (inactive)
HCC 2998
  GI50: 16.7 µM (inactive)
HCT-116
  GI50: 17 µM (inactive)
HCT-15
  GI50: 19.7 µM
HL-60
  GI50: 16.6 µM (inactive)
HOP-18
  GI50: 18.5 µM (inactive)
HOP-62
  GI50: 20.1 µM (inactive)
HOP-92
  GI50: 20 µM (inactive)
HT-29
  GI50: 21.3 µM (inactive)
IGROV-1
  GI50: 26.1 µM (inactive)
K562
  GI50: 18.6 µM (inactive)
KM-20L2
  GI50: 19.5 µM (inactive)
KM12
  GI50: 17 µM (inactive)
LOX IMVI
  GI50: 15.2 µM (inactive)
LXFL 529
  GI50: 14.3 µM (inactive)
M14
  GI50: 18.9 µM (inactive)
MOLT-4
  GI50: 30.5 µM (inactive)
Malme-3M
  GI50: 17.9 µM (inactive)
NCI-H226
  GI50: 19.1 µM (inactive)
NCI-H23
  GI50: 17 µM (inactive)
NCI-H460
  GI50: 17 µM (inactive)
NCI-H522
  GI50: 13.1 µM (inactive)
OVCAR-3
  GI50: 19.5 µM (inactive)
OVCAR-4
  GI50: 18.5 µM (inactive)
OVCAR-5
  GI50: > 10 µM (inactive)
OVCAR-8
  GI50: 19.2 µM (inactive)
RPMI-8226
  GI50: 10.9 µM (inactive)
RXF 631
  GI50: 60 µM (inactive)
SF-268
  GI50: 21.8 µM (inactive)
SF-295
  GI50: 19.8 µM (inactive)
SF-539
  GI50: 18.4 µM (inactive)
SK-MEL-28
  GI50: 18.8 µM (inactive)
SK-MEL-2
  GI50: > 10 µM (inactive)
SK-MEL-5
  GI50: 11.7 µM (inactive)
SK-OV-3
  GI50: 0.18 µM (active)
SN12C
  GI50: 15.9 µM (inactive)
SNB-19
  GI50: 27.2 µM (inactive)
SNB-75
  GI50: 18.5 µM (inactive)
SNB-78
  GI50: 21.3 µM (inactive)
SR
  GI50: 24.8 µM (inactive)
SW-620
  GI50: 23.5 µM (inactive)
TK-10
  GI50: 25.9 µM (inactive)
U-251
  GI50: 16.5 µM (inactive)
UACC-257
  GI50: 17.9 µM (inactive)
UACC-62
  GI50: 20 µM (inactive)
UO-31
  GI50: 22.2 µM (inactive)
XF498
  GI50: 13.5 µM (inactive)
